Bridge positions count the residues as written; N and C are the ends. Square brackets hold non-standard residues; d marks the D form. Peptide text beside a SMILES is read from it. * marks the point of attachment. X1 = O=C(O)CN1CCN(CC(=O)O)CC(Cc2ccc(NC(=S)*)cc2)N(CC(=O)O)CC1; NMeF = CN[C@@H](Cc1ccccc1)C(=O)O
Biological target: human Granzyme B (hGranzyme B) (Homo sapiens, UniProt P10144)
Test: Surface Plasmon Resonance (SPR) binding to human Granzyme B
Conditions: Table 8, 25° C.
Protocol: All reagents and solvents were purchased from commercial sources and used “as is” unless otherwise noted. Reaction progress and synthetic intermediate analysis were assessed by LCMS (UV detection with ESI, APCI, or other mass detection) when applicable using a MeCN/water gradient with either TFA, formic acid, or NH4HCO3 modifier. Silica gel and reverse-phase flash column chromatography were conducted with commercially available pre-packed columns. Reverse-phase preparative HPLC purification was performed on preparative HPLC instruments with UV and MS detection using a MeCN/water gradient with either TFA, formic acid, or NH4OH modifier. Unless otherwise noted, all KD data presented in tables refers to the surface plasmon resonance assay that is described in the Biological Assay section.
The kinetics of test peptide binding to human Granzyme B (hGranzyme B) was determined by SPR. All experiments were performed at 25° C. using the Biacore 8k+ instrument (Cytiva, Marlborough, MA). The Biacore 8k+ Insight Evaluation Software Version 3.0 was used to fit the data with a 1:1 binding model to determine the association rate constant ka (M^−1s^−1, where “M” equals molar and “s” equals seconds) and the dissociation rate constant kd (s^−1). These rate constants were used to calculate the equilibrium dissociation constant, KD (M)=kd/ka. To measure the binding kinetics of peptides of interest, surfaces were prepared by a capture method to a Series S Streptavidin (SA) chip using a 1×HBS-EP+ running buffer (Cytiva). hGranzyme B was diluted to 10 μg/mL in 1×HBS-EP+ and flowed over spot 2 of each flow cell on the chip at a flow rate of 10 μl/min for 20 s to achieve a level of capture of ~1100 RU. An unmodified spot 1 of each flow cell was used as a matrix binding control or reference surface. Binding kinetics were measured using single cycle kinetics at 25° C. by injecting 5 concentrations with 3-fold serial dilutions of test peptides from […] to 1 μM. Compound dilutions were performed manually in a running buffer containing 1×HBS-EP+(Cytiva), and a final concentration of 2% DMSO. The interaction analyses over hGranzyme B, were performed using a 120 s association time and a 900 s dissociation time. All experiments were conducted at a flow rate of […] with a data collection rate of 10 Hz.
Peptide dilution series included 2 zero concentration points (no compound) which were averaged and subtracted from the peptide concentration injection as DMSO control responses. Binding data acquired from the reference surface (matrix binding control) were subtracted from the binding data for hGranzyme B surface on the chip to determine specific binding. Next, the association phase data were solvent corrected to account for any signal fluctuation throughout the experiment due to subtle DMSO concentration differences. Corrected response data were analyzed using the Biacore 8k+ Evaluation Software Version 3.0 according to the manufacturer. SPR data for representative compounds of the disclosure are found in Table 8.

human Granzyme B (hGranzyme B), sequence (P10144 21-247): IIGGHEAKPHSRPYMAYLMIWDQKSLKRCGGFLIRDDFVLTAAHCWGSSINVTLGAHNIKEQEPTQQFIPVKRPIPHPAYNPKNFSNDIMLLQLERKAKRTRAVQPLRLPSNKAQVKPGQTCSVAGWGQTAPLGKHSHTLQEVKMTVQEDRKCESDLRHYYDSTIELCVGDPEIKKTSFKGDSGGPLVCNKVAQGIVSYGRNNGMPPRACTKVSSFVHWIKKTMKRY

SMILES | Kd
CC(C)[C@@H]1NC(=O)[C@H](CC(=O)O)NC(=O)[C@H](Cc2ccc(O)cc2)NC(=O)[C@H](Cc2ccc(O)cc2)NC(=O)[C@H](Cc2ccccc2)N(C)C(=O)[C@H](Cc2ccccc2)N(C)C(=O)[C@H](Cc2ccccc2)NC(=O)CSC[C@@H](C(=O)NCC(N)=O)NC(=O)[C@H](C)NC(=O)[C@H](Cc2ccccc2)N(C)C(=O)[C@H](Cc2ccc(O)cc2)NC(=O)[C@H](C(C)C)NC(=O)[C@H](CC(=O)O)NC(=O)[C@H](C(C)C)NC(=O)[C@H](CC(=O)O)NC1=O [Compound 14a, *F.NMeF.NMeF.Y.Y.D.V.D.V.D.V.Y.NMeF.A.*C.G-NH2] ({CH2CO}-F[NMeF][NMeF]YYDVDVDVY[NMeF]ACG-NH2; thioether N-15) | 0.8 nM
CC(C)[C@@H]1NC(=O)[C@H](CC(=O)O)NC(=O)[C@H](C)NC(=O)[C@H](Cc2ccc(O)cc2)NC(=O)[C@H](Cc2ccccc2)N(C)C(=O)[C@H](Cc2ccccc2)N(C)C(=O)[C@H](Cc2ccccc2)NC(=O)CSC[C@@H](C(=O)NCC(=O)N[C@@H](CCCCN)C(N)=O)NC(=O)[C@H](Cc2c[nH]cn2)NC(=O)[C@H](Cc2ccccc2)N(C)C(=O)[C@H](Cc2ccc(O)cc2)NC(=O)[C@H](C(C)C)NC(=O)[C@H](CC(=O)O)NC(=O)[C@H](C(C)C)NC(=O)[C@H](CC(=O)O)NC1=O [Compound 10a, *F.NMeF.NMeF.Y.A.D.V.D.V.D.V.Y.NMeF.H.*C.G.K-NH2] ({CH2CO}-F[NMeF][NMeF]YADVDVDVY[NMeF]HCGK-NH2; thioether N-15) | 1 nM
CC(C)[C@@H]1NC(=O)[C@H](CC(=O)O)NC(=O)[C@H](C)NC(=O)[C@H](Cc2ccc(O)cc2)NC(=O)[C@H](Cc2ccccc2)N(C)C(=O)[C@H](Cc2ccccc2)N(C)C(=O)[C@H](Cc2ccccc2)NC(=O)CSC[C@@H](C(=O)NCC(=O)N[C@@H](CCCCN)C(=O)N[C@@H](CCCCN)C(N)=O)NC(=O)[C@H](Cc2c[nH]cn2)NC(=O)[C@H](Cc2ccccc2)N(C)C(=O)[C@H](Cc2ccc(O)cc2)NC(=O)[C@H](C(C)C)NC(=O)[C@H](CC(=O)O)NC(=O)[C@H](C(C)C)NC(=O)[C@H](CC(=O)O)NC1=O [Compound 11a, *F.NMeF.NMeF.Y.A.D.V.D.V.D.V.Y.NMeF.H.*C.G.K.K-NH2] ({CH2CO}-F[NMeF][NMeF]YADVDVDVY[NMeF]HCGKK-NH2; thioether N-15) | 2.1 nM
CC(C)[C@@H]1NC(=O)[C@H](CC(=O)O)NC(=O)[C@H](Cc2ccc(O)cc2)NC(=O)[C@H](Cc2ccc(O)cc2)NC(=O)[C@H](Cc2ccccc2)N(C)C(=O)[C@H](Cc2ccccc2)N(C)C(=O)[C@H](Cc2ccccc2)NC(=O)CSC[C@@H](C(=O)NCC(=O)N[C@@H](CCCCN)C(N)=O)NC(=O)[C@H](Cc2c[nH]cn2)NC(=O)[C@H](Cc2ccccc2)N(C)C(=O)[C@H](Cc2ccc(O)cc2)NC(=O)[C@H](C(C)C)NC(=O)[C@H](CC(=O)O)NC(=O)[C@H](C(C)C)NC(=O)[C@H](CC(=O)O)NC1=O [Compound 12a, *F.NMeF.NMeF.Y.Y.D.V.D.V.D.V.Y.NMeF.H.*C.G.K-NH2] ({CH2CO}-F[NMeF][NMeF]YYDVDVDVY[NMeF]HCGK-NH2; thioether N-15) | 2.6 nM
CC(C)[C@@H]1NC(=O)[C@H](CC(=O)O)NC(=O)[C@H](Cc2ccc(O)cc2)NC(=O)[C@H](Cc2ccc(O)cc2)NC(=O)[C@H](C)NC(=O)[C@H](Cc2ccccc2)N(C)C(=O)[C@H](Cc2ccccc2)NC(=O)CSC[C@@H](C(=O)NCC(N)=O)NC(=O)[C@H](Cc2c[nH]cn2)NC(=O)[C@H](Cc2ccccc2)N(C)C(=O)[C@H](Cc2ccc(O)cc2)NC(=O)[C@H](C(C)C)NC(=O)[C@H](CC(=O)O)NC(=O)[C@H](C(C)C)NC(=O)[C@H](CC(=O)O)NC1=O [Compound 18a, *F.NMeF.A.Y.Y.D.V.D.V.D.V.Y.NMeF.H.*C.G-NH2] ({CH2CO}-F[NMeF]AYYDVDVDVY[NMeF]HCG-NH2; thioether N-15) | 68 nM
CC(C)[C@@H]1NC(=O)[C@H](CC(=O)O)NC(=O)[C@H](C(C)C)NC(=O)[C@H](CC(=O)O)NC(=O)[C@H](Cc2ccc(O)cc2)NC(=O)[C@H](Cc2ccc(O)cc2)NC(=O)[C@H](Cc2ccccc2)N(C)C(=O)[C@H](Cc2ccccc2)N(C)C(=O)[C@H](Cc2ccccc2)NC(=O)CSC[C@@H](C(=O)NCC(N)=O)NC(=O)[C@H](Cc2c[nH]cn2)NC(=O)[C@H](Cc2ccccc2)N(C)C(=O)[C@H](Cc2ccc(O)cc2)NC(=O)[C@H](C)NC(=O)[C@H](CC(=O)O)NC1=O [Compound 17a, *F.NMeF.NMeF.Y.Y.D.V.D.V.D.A.Y.NMeF.H.*C.G-NH2] ({CH2CO}-F[NMeF][NMeF]YYDVDVDAY[NMeF]HCG-NH2; thioether N-15) | 10.7 nM
CC(C)[C@@H]1NC(=O)[C@H](CC(=O)O)NC(=O)[C@H](Cc2ccc(O)cc2)NC(=O)[C@H](Cc2ccc(O)cc2)NC(=O)[C@H](C)NC(=O)[C@H](Cc2ccccc2)N(C)C(=O)[C@H](Cc2ccccc2)NC(=O)CSC[C@@H](C(=O)NCC(=O)NCC(=O)N[C@@H](CCCCN)C(N)=O)NC(=O)[C@H](Cc2c[nH]cn2)NC(=O)[C@H](Cc2ccccc2)N(C)C(=O)[C@H](Cc2ccc(O)cc2)NC(=O)[C@H](C(C)C)NC(=O)[C@H](CC(=O)O)NC(=O)[C@H](C(C)C)NC(=O)[C@H](CC(=O)O)NC1=O [Compound 9a, *F.NMeF.A.Y.Y.D.V.D.V.D.V.Y.NMeF.H.*C.G.G.K-NH2] ({CH2CO}-F[NMeF]AYYDVDVDVY[NMeF]HCGGK-NH2; thioether N-15) | 188 nM
CC(C)[C@@H]1NC(=O)[C@H](CC(=O)O)NC(=O)[C@H](Cc2ccc(O)cc2)NC(=O)[C@H](Cc2ccc(O)cc2)NC(=O)[C@H](Cc2ccccc2)N(C)C(=O)[C@H](Cc2ccccc2)N(C)C(=O)[C@H](Cc2ccccc2)NC(=O)CSC[C@@H](C(=O)NCC(=O)NCC(=O)N[C@@H](CCCCNC(=S)Nc2ccc(CC3CN(CC(=O)O)CCN(CC(=O)O)CCN3CC(=O)O)cc2)C(N)=O)NC(=O)[C@H](Cc2c[nH]cn2)NC(=O)[C@H](Cc2ccccc2)N(C)C(=O)[C@H](Cc2ccc(O)cc2)NC(=O)[C@H](C(C)C)NC(=O)[C@H](CC(=O)O)NC(=O)[C@H](C(C)C)NC(=O)[C@H](CC(=O)O)NC1=O (some centres unmarked) [Compound 3a, *F.NMeF.NMeF.Y.Y.D.V.D.V.D.V.Y.NMeF.H.*C.G.G.K(NOTA)-NH2] ({CH2CO}-F[NMeF][NMeF]YYDVDVDVY[NMeF]HCGGK(X1)-NH2; thioether N-15) | 1 nM
CC(C)[C@@H]1NC(=O)[C@H](CC(=O)O)NC(=O)[C@H](C(C)C)NC(=O)[C@H](CC(=O)O)NC(=O)[C@H](C(C)C)NC(=O)[C@H](CC(=O)O)NC(=O)[C@H](Cc2ccc(O)cc2)NC(=O)[C@H](Cc2ccc(O)cc2)NC(=O)[C@H](Cc2ccccc2)N(C)C(=O)[C@H](Cc2ccccc2)N(C)C(=O)[C@H](Cc2ccccc2)NC(=O)CSC[C@@H](C(=O)NCC(N)=O)NC(=O)[C@H](Cc2c[nH]cn2)NC(=O)[C@H](Cc2ccccc2)N(C)C(=O)[C@H](C)NC1=O [Compound 21a, *F.NMeF.NMeF.Y.Y.D.V.D.V.D.V.A.NMeF.H.*C.G-NH2] ({CH2CO}-F[NMeF][NMeF]YYDVDVDVA[NMeF]HCG-NH2; thioether N-15) | 453 nM
CC(C)[C@@H]1NC(=O)[C@H](CC(=O)O)NC(=O)[C@H](Cc2ccc(O)cc2)NC(=O)[C@H](Cc2ccc(O)cc2)NC(=O)[C@H](Cc2ccccc2)N(C)C(=O)[C@H](Cc2ccccc2)N(C)C(=O)[C@H](C)NC(=O)CSC[C@@H](C(=O)NCC(N)=O)NC(=O)[C@H](Cc2c[nH]cn2)NC(=O)[C@H](Cc2ccccc2)N(C)C(=O)[C@H](Cc2ccc(O)cc2)NC(=O)[C@H](C(C)C)NC(=O)[C@H](CC(=O)O)NC(=O)[C@H](C(C)C)NC(=O)[C@H](CC(=O)O)NC1=O [Compound 19a, *A.NMeF.NMeF.Y.Y.D.V.D.V.D.V.Y.NMeF.H.*C.G-NH2] ({CH2CO}-A[NMeF][NMeF]YYDVDVDVY[NMeF]HCG-NH2; thioether N-15) | 165 nM
CC(C)[C@@H]1NC(=O)[C@H](CC(=O)O)NC(=O)[C@H](Cc2ccc(O)cc2)NC(=O)[C@H](C)NC(=O)[C@H](Cc2ccccc2)N(C)C(=O)[C@H](Cc2ccccc2)N(C)C(=O)[C@H](Cc2ccccc2)NC(=O)CSC[C@@H](C(=O)NCC(N)=O)NC(=O)[C@H](Cc2c[nH]cn2)NC(=O)[C@H](Cc2ccccc2)N(C)C(=O)[C@H](Cc2ccc(O)cc2)NC(=O)[C@H](C(C)C)NC(=O)[C@H](CC(=O)O)NC(=O)[C@H](C(C)C)NC(=O)[C@H](CC(=O)O)NC1=O [Compound 23a, *F.NMeF.NMeF.A.Y.D.V.D.V.D.V.Y.NMeF.H.*C.G-NH2] ({CH2CO}-F[NMeF][NMeF]AYDVDVDVY[NMeF]HCG-NH2; thioether N-15) | 752 nM

From patent US20260297134A1, “CYCLIC PEPTIDES AS PET IMAGING AGENTS OF GRANZYME B” (Merck Sharp & Dohme LLC, priority 2023, published 2026)
